# In PMC5499624 (Biomolecules & Therapeutics, 2017):
# Counter-ions that a name gives are not always drawn. Like-named read-outs stand apart in the source and are kept apart here.
# Experiments:
# [1] = test system: TR-BBB cells; assay: Uptake of radiolabelled substrates in siRNA-transfected TR-BBB cells; type: in vitro ADME, rat; conditions: 37°C, 5 min
# [2] = test system: proton coupled antiporter; conditions: read-out: in vivo Km; mouse, in situ brain perfusion; ref André et al., 2009; cited from earlier work
# [3] = test system: [^3H]imperatorin brain uptake; assay: Brain uptake index; type: in vivo, rat; conditions: 15 s after injection
# [4] = test system: hCMEC/D3 cells; conditions: ref Kitamura et al., 2014, Sadiq et al., 2011; cited from earlier work
# [5] = type: in vivo, SD rats; conditions: for AUC: 60 min; for Uptake: 60 min after IV
# [6] = test system: rat brain; assay: [^3H]imperatorin brain uptake by internal carotid artery perfusion; type: in vivo, SD rats; conditions: ICAP
# [7] = test system: P-glycoprotein (P-gp); conditions: ref Lili et al. (2013), cited from earlier work
# [8] = [^3H]imperatorin uptake by TR-BBB cells; type: in vitro ADME, rat; conditions: rat, pH 7.4
# [9] = test system: TR-BBB cells; assay: [^3H]imperatorin uptake by TR-BBB cells; type: in vitro ADME, rat
# [10] = test system: [^3H]imperatorin uptake by TR-BBB cells; assay: Inhibition of [^3H]imperatorin uptake by TR-BBB cells by selected compounds; type: in vitro ADME, rat; conditions: compound 1 mM (L-Carnitine: concentration cell empty), 37°C, 5 min
# [11] = test system: [^3H]imperatorin brain uptake; type: in vivo, SD rats; conditions: compound 1 mM, ICAP 4 ml/min for 15 sec, pH 7.4
# [12] = test system: [^3H]imperatorin uptake by TR-BBB cells; type: in vitro ADME, rat; conditions: 37°C, 5 min
# [13] = sucrose; ref Lee and Kang, 2016; cited from earlier work
compound,measurement,setting,value
"CC(=O)O[C@H](CC(=O)[O-])C[N+](C)(C)C [ALC, acetyl-L-carnitine]",uptake after siRNA transfection,[1]; Octn2 siRNA,significantly inhibited
"Clc1cccc(Cl)c1N=C1NCCN1 [Clonidine, clonidine hydrochloride]",Km,[2],600 µM
same,BUI of [^3H]imperatorin in presence of inhibitor,[3]; inhibitor 10 mM,33.9 ± 5.5 %
"CN(C)CCOC(c1ccccc1)c1ccccc1 [Diphenhydramine, diphenhydramine]",Km,[4],59 µM
CC(C)=CCOc1c2occc2cc2ccc(=O)oc12 [Imperatorin],Brain VD relative to [^14C]sucrose,"[5]; IV injection, rat brain",about 6 fold
same,BBB PS product relative to sucrose,"[5]; IV injection, sucrose value from Lee and Kang, 2016",12 fold
same,BBB PS product relative to sucrose,"[5]; IV injection, sucrose value from Wu and Pardridge, 1999",20 fold
same,AUCss,"[5]; SD rats, single IV, plasma",38.2 ± 1.5 % ID min/mL
same,AUC,"[5]; SD rats, single IV, plasma",22.1 ± 0.8 % ID min/mL
same,AUC,"[5]; SD rats, single IV, plasma, listed as [^3H]imperatorin",22 ± 1 % ID min/mL
same,Uptake,"[5]; brain, SD rats",0.086 ± 0.008 %ID/g
same,Uptake,"[5]; heart, SD rats",1.62 ± 0.10 %ID/g
same,Uptake,"[5]; kidney, SD rats",3.70 ± 0.33 %ID/g
same,Uptake,"[5]; liver, SD rats",1.21 ± 0.08 %ID/g
same,Uptake,"[5]; lung, SD rats",1.68 ± 0.03 %ID/g
same,Brain transport compared with control,[6]; carbonate-free HEPES,markedly decreased
same,Vmax of brain influx,"[6]; imperatorin 0–1 mM, pH 7.4",0.50 µmol/min/g
same,Brain transport compared with control,[6]; mannitol Na+-free buffer,significantly increased
same,"Kd (unsaturated component, passive diffusion)",[6]; nonlinear regression,3.1e-17 µL/min/g
same,Km,"[6]; read-out: apparent Km of brain influx, imperatorin 0–1 mM, pH 7.4",180 µM
same,IC50,[7]; P-gp inhibition,> 90 µM
same,efflux ratio,[7]; larger than 3.0 = substrate of P-gp,0.5
same,BUI of [^3H]imperatorin in presence of inhibitor,[3]; inhibitor 1 mM,24.9 ± 3.4 %
same,microsomal CLint at 5 min,[8],17 µL/min/mg
same,maximum rate of uptake velocity (Vmax),"[9]; 5 min, pH 7.4",2.22 nmol/mg protein/min
same,y-intersection of time course uptake (cell-to-medium ratio),"[9]; at 30 sec, Fig. 4",approximately 140 ul/mg protein
same,[^3H]Imperatorin uptake compared to control,[9]; extracellular pH 6.4,significantly reduced
same,[^3H]Imperatorin uptake compared to control,[9]; extracellular pH 8.4,markedly increased
same,[^3H]Imperatorin uptake compared to control,[9]; intracellular acidification by pretreatment with NH4Cl,increased
same,[^3H]Imperatorin uptake compared to control,[9]; pHi alkalized by 30 mM NH4Cl,reduced
same,Km,"[9]; read-out: Michaelis-Menten constant (Km) of uptake, 5 min, unlabeled imperatorin 0.01∼1 mM, pH 7.4",59 µM
same,uptake after siRNA transfection,"[1]; rPmat, rOct 2, rOctn2 or rOctn1 siRNA",not significantly affected
"C[N+](C)(C)C[C@H](O)CC(=O)[O-] [L-Carnitine, L-carnitine]",Relative Uptake (% of Control) of [^3H]imperatorin,[10],86.4 ± 5.6 % of Control
same,"Brain volume of distribution (VD, % of Control) of [^3H]imperatorin",[11],79.2 ± 5.3 % of Control
"C[n+]1ccc(-c2ccccc2)cc1 [MPP+, 1-Methyl-4-phenylpyridinium ion]",Relative Uptake (% of Control) of [^3H]imperatorin,[10],81.3 ± 3.9 % of Control
same,"Brain volume of distribution (VD, % of Control) of [^3H]imperatorin",[11],56.3 ± 5.8 % of Control
same,uptake after siRNA transfection,[1]; rPmat siRNA,significantly inhibited
"CNC[C@H](O)[C@@H](O)[C@H](O)[C@H](O)CO [N-Methylglucamine (NMG), N-Methylglucamine]",Relative Uptake (% of Control) of [^3H]imperatorin,[12]; Na+ replacement by N-methylglucamine,97.4 ± 6.6 % of Control
"CN1CCC[C@H]1c1cccnc1 [Nicotine, nicotine]",BUI of [^3H]imperatorin in presence of inhibitor,[3]; inhibitor 10 mM,27.6 ± 0.0 %
Nc1ccc(C(=O)NCC(=O)O)cc1 [PAH],BUI of [^3H]imperatorin in presence of inhibitor,[3]; inhibitor 10 mM,58.5 ± 6.3%
same,"Brain volume of distribution (VD, % of Control) of [^3H]imperatorin",[11],94.4 ± 7.1 % of Control
[Cl-].[K+] [Potassium ion (KCl)],Relative Uptake (% of Control) of [^3H]imperatorin,[12]; sodium replaced by potassium ion (KCl),97.3 ± 2.3 % of Control
"[N-]=[N+]=[N-].[Na+] [Sodium azide, sodium azide]",Relative Uptake (% of Control) of [^3H]imperatorin,"[12]; sodium azide 0.1%, pretreatment, pH 7.4",63.8 ± 2.7 % of Control
CC[N+](CC)(CC)CC [TEA],Relative Uptake (% of Control) of [^3H]imperatorin,[10],107 ± 10 % of Control
same,BUI of [^3H]imperatorin in presence of inhibitor,[3]; inhibitor 10 mM,48.6 ± 4.5%
same,"Brain volume of distribution (VD, % of Control) of [^3H]imperatorin",[11],103 ± 5 % of Control
"COc1cccc(C2(O)CCCCC2CN(C)C)c1 (stereo not shown) [Tramadol, tramadol hydrochloride]",Km,[4],49 µM
OC[C@H]1O[C@@](CO)(O[C@H]2O[C@H](CO)[C@@H](O)[C@H](O)[C@H]2O)[C@@H](O)[C@@H]1O [sucrose],BBB PS product,[13],0.32 ± 0.52 µL/min/g
carbonyl cyanide-p-trifluorome-thoxyphenylhydrazone [FCCP],Relative Uptake (% of Control) of [^3H]imperatorin,"[12]; 10 μM FCCP, pre-incubated 10 min, pH 7.4",56.2 ± 6.3 % of Control
